Assay [1] has as its system mechanical allodynia after L5/L6 spinal nerve ligation. Briefly: Sciatic nerve ligation (SNL) model of neuropathic pain. It is filed as in vivo. The settings on record: rats; dose 50 mg/kg; response at Tmax. The source says: Left L5 and L6 spinal nerves are isolated adjacent to the vertebral column and were ligated with 5-0 silk suture distal to the dorsal root ganglion, as described by Kim and Chung (1992). The incision was closed with the help of GLUture topical tissue adhesive. At 14 days post-surgery (one day prior to test compound administration), mechanical allodynia was quantified using eight von Frey filaments, calibrated in the range 0.4-15.1 g (Nielsen et al 2005). Rats were placed into individual plastic containers on top of a suspended wire mesh grid and acclimated to the test chambers for at least 15 min. Filaments were applied perpendicular to the mid-plantar paw surface, with enough force to cause slight buckling, and held in place for 6-8 sec until a response was noted as a sharp paw withdrawal, flinching, licking and/or biting immediately upon removal of the filament (Nielsen et al 2005). […] Test compounds of Formula (I) were administered and a response was measured at Tmax. The maximum possible effect (% MPE) was determined to be 100% if the sensitivity in the ipsilateral paw neared that of the contralateral paw. Values from vehicle-treated animals were considered 0%. The compound effect was determined based on these values.

Assay [2] addresses T1, human N-type Ca channel (Homo sapiens, UniProt Q00975). Briefly: Calcium influx assay (FDSS). It counts as cell-based. Set-up: host or cells: HEK 293. The settings on record: HEK 293 cells, depolarized with 100 mM KCl. How it is done:
All cell culture reagents were procured from HyClone and other reagents were from Fisher. Recombinant HEK 293 cells expressing human N-type Ca channel (Millipore) were maintained in DMEM F12 containing 10% FBS and selection antibiotics at 37° C. in 5% CO2.
Cells were incubated at 30° C. in 5% CO2 overnight. The medium was removed and cells were loaded with Fluo8 dye (AAT Bioquest) at 37° C. and 30° C., 30 min each in darkness. Cells were washed four times with wash buffer (16 mM Herep pH 7.2, 2 mM CaCl2, 1 mM MgCl2, 5 mM glucose, 140 mM choline chloride and 2 mM KCl) leaving 15 μL buffer after the last wash. Compounds of Formula (I), serially diluted, were added to the cell plate. The plates were incubated in darkness for 15 min. Cells were depolarized with 100 mM KCl and Ca influx was measured.

Assay [3] has as its target T1, human N-type Ca channel. Briefly: Measurement of electrophysiological response (QPatch). The settings on record: for N Type IC50 Data Qpatch Pulse = 1 / N Type IC50 Data Qpatch Pulse = 15: concentration range 0.01-0.3 μM. On the technique in general: In patch-clamp work, channel activity is measured electrically.
Procedure: The recombinant cell line described above was used in the measurement of electrophysiological properties with QPatch (Sophion). […] Prior to the experiment, the flasks were moved to 30° C. and incubated for 48-72 hrs. On the day of assaying, cells were detached and harvested. The cell pellet was re-suspended in SMF4HEK (HyClone)/25 mM HEPS at 2-5 million/mL and placed on the QStirrer of the QPatch for 30-60 min prior to the start of the assay. […] Microtiter-Plate/Reference Buffer contained 140 mM TEA-Cl, 10 mM BaCl2, 0.8 mM MgCl2, 10 mM HEPES pH˜7.4 adjusted with TEA-OH/HCl, and ˜300 mOsm. Cells were transferred to a QPatch 48 plate and gigaseal was formed. The plate was perfused with intracellular and extracellular buffer. […] In brief, cells were depolarized from resting potential of −80 mV to +20 mV and current was recorded. Data was plotted as percent inhibition vs concentration of the compound and IC50 values were generated using Graphpad Prism non-linear regression analysis.
Where [4] appears, read: read-out: Qpatch Pulse = 1 (percent inhibition).
Where [5] appears, read: N Type IC50 Data Qpatch Pulse = 1, Pulse = 1, concentration range 0.3-10 μM.
Setting [6] is: N Type IC50 Data Qpatch Pulse = 15, Pulse = 15, concentration range 0.3-10 μM.

These results are taken from patent US9974775B2, “Substituted imidazoles as N-type calcium channel blockers” (Janssen Pharmaceutica NV, priority 2013, dated 2018).

Where two headings read alike, the source gives them in different places. A value given as a limit tells only on which side of the number the result lay.

T1 sequence (Q00975 whole entry): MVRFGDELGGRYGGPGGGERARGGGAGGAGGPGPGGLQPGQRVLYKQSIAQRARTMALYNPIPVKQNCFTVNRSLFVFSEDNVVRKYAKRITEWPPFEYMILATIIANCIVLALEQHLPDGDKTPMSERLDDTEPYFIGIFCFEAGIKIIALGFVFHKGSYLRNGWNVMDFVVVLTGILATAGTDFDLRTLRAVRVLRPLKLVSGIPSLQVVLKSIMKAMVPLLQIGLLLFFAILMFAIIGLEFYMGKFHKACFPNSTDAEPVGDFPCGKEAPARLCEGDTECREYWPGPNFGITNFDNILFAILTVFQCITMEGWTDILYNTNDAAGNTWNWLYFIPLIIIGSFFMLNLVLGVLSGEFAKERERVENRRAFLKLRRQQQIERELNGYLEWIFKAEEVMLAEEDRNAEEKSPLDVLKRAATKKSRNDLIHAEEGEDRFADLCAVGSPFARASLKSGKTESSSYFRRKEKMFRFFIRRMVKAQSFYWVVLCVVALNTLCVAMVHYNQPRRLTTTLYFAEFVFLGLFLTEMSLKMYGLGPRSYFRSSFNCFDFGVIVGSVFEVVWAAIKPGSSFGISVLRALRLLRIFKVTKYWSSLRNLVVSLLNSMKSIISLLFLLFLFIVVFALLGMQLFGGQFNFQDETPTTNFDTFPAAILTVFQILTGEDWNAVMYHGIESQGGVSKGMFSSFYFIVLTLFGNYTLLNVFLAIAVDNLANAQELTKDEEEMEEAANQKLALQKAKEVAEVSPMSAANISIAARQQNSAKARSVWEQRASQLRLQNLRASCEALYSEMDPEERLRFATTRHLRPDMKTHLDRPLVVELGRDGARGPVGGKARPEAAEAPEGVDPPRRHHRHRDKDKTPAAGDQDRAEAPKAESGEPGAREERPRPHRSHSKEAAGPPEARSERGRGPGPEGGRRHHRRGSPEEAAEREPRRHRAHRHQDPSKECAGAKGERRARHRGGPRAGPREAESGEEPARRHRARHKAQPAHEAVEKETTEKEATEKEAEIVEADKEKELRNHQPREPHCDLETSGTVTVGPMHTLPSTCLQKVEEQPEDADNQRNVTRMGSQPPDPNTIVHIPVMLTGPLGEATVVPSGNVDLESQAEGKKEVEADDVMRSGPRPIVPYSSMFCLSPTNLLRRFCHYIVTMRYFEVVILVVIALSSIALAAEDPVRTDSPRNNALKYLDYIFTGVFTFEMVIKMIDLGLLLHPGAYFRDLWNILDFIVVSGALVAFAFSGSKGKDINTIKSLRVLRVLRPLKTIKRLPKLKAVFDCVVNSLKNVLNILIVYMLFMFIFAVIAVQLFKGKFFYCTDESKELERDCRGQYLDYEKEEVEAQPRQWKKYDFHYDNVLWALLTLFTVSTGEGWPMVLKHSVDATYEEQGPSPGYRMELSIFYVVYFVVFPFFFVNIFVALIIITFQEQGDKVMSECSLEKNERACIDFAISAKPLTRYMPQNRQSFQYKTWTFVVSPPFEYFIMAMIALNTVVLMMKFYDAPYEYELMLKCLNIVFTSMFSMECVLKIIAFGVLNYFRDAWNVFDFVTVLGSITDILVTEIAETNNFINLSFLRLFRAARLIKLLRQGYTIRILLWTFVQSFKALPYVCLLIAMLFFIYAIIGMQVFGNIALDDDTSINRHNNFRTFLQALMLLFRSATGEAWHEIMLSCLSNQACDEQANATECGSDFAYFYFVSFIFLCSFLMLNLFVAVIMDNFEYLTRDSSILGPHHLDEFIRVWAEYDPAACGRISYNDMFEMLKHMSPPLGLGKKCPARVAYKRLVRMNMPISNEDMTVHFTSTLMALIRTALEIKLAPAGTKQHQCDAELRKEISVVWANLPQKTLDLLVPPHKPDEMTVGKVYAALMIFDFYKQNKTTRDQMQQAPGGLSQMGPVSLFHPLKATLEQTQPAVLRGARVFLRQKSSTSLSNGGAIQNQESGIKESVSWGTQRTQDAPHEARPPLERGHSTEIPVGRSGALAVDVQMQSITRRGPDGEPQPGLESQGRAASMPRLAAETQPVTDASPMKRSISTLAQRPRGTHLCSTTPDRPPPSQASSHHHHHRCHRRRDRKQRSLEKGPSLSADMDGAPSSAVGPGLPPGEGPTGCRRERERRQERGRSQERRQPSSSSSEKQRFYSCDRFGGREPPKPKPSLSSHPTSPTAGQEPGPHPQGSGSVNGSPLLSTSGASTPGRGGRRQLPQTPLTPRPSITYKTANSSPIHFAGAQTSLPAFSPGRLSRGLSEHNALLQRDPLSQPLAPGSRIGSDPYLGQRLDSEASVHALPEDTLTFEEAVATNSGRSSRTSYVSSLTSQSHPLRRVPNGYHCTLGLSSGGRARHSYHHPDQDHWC
T1 sequence (P54284 whole entry partner): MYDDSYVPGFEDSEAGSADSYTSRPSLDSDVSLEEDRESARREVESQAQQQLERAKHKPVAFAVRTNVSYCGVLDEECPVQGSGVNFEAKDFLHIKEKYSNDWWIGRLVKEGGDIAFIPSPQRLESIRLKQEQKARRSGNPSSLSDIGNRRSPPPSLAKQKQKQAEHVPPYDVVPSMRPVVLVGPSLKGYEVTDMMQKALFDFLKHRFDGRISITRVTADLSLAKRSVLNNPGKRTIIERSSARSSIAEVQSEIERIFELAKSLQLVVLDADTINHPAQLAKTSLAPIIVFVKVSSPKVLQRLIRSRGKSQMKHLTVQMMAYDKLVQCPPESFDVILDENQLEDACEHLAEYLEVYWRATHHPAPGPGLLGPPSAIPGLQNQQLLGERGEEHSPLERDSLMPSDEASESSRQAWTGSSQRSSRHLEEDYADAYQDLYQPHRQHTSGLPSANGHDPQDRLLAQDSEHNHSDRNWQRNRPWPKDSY
T1 sequence (P54289 25-956 partner limits assumed): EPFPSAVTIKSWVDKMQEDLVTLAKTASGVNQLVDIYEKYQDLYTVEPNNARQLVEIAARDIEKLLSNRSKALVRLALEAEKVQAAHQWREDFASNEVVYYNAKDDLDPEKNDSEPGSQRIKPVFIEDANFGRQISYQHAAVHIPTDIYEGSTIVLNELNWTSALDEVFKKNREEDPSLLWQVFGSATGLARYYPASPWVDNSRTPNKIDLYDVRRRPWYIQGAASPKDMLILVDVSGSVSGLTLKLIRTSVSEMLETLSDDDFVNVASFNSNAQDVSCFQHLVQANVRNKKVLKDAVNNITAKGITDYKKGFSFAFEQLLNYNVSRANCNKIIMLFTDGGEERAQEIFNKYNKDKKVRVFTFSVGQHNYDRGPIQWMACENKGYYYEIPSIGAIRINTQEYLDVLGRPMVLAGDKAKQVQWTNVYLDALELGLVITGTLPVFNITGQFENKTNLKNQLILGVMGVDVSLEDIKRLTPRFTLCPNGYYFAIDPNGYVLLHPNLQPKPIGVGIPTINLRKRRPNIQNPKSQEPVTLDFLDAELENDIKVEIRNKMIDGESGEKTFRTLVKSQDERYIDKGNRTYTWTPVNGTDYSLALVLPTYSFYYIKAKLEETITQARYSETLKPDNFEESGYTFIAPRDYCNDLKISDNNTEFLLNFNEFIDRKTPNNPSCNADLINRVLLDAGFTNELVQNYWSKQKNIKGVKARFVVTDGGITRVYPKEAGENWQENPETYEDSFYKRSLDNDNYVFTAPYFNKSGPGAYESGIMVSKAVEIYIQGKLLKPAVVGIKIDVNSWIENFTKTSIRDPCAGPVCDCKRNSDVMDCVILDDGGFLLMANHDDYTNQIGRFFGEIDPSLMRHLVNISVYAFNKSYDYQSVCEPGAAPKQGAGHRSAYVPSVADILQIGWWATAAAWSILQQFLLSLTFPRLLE
T1 sequence (P54289 957-1103 partner limits assumed): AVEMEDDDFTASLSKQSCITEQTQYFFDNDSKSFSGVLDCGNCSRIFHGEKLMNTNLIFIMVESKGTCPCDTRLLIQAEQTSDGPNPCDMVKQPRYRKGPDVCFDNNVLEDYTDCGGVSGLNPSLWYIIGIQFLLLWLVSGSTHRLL

Regarding `COc1ccccc1-c1nc(C2CC(C)(C)OC(C)(C)C2)cn1-c1ccc(C#N)cc1` [Cpd 1, 4-(2-(2-methoxyphenyl)-4-(2,2,6,6-tetramethyltetrahydro-2H-pyran-4-yl)-1H-imidazol-1-yl)benzonitrile], the “SNL(% MPE)” value in assay [1] amounted to 64.07 ± 12.31%.

What is called IC50 is the concentration that gives 50% inhibition. With `CC1(C)CC(c2cn(-c3ccc(C#N)cc3)c(C3CC3)n2)CC(C)(C)O1` [Cpd 57, 4-[2-Cyclopropyl-4-(2,2,6,6-tetramethyltetrahydro-2H-pyran-4-yl)-1H-imidazol-1-yl]benzonitrile], the IC50 at human N-type Ca channel [2] is not below 10000 nM.

The inhibition is the percentage by which the read-out fell short of the control. As to `COc1ccccc1-c1nc(C2CC(C)(C)OC(C)(C)C2)cn1-c1ccc(F)c(C#N)c1` [Cpd 74, 2-Fluoro-5-[2-(2-methoxy-phenyl)-4-(2,2,6,6-tetramethyl-tetrahydro-pyran-4-yl)-imidazol-1-yl]-benzonitrile], the IC50 on human N-type Ca channel [2] was found to be 488 nM. Also, the inhibition at 10 µM on human N-type Ca channel [3] (setting [4]) turned out to be 36%; at human N-type Ca channel [3] (read-out: Qpatch Pulse = 15 (percent inhibition)) it was 44%. As for `COc1cc(-n2cc(C3CC(C)(C)OC(C)(C)C3)nc2-c2cccnc2OC)ccc1C#N` [Cpd 77, 2-Methoxy-4-[2-(2-methoxypyridin-3-yl)-4-(2,2,6,6-tetramethyltetrahydro-2H-pyran-4-yl)-1H-imidazol-1-yl]benzonitrile], the IC50 on human N-type Ca channel [2] is not below 10000 nM. On to `COc1ncncc1-c1nc(C2CC(C)(C)OC(C)(C)C2)cn1-c1ccc(C#N)cc1` [Cpd 86, 4-[2-(4-Methoxypyrimidin-5-yl)-4-(2,2,6,6-tetramethyltetrahydro-2H-pyran-4-yl)-1H-imidazol-1-yl]benzonitrile], for which the “Qpatch Pulse = 1 (percent inhibition)” value on human N-type Ca channel [3] (Pulse = 1, concentration range 0.01-1 μM) was found to be 28%. With `COc1nccnc1-c1nc(C2CC(C)(C)OC(C)(C)C2)cn1-c1ccc(C#N)cc1` [Cpd 87, 4-[2-(3-Methoxypyrazin-2-yl)-4-(2,2,6,6-tetramethyltetrahydro-2H-pyran-4-yl)-1H-imidazol-1-yl]benzonitrile], at human N-type Ca channel [3] (Pulse = 1), the “N Type IC50 Data Qpatch Pulse = 1” value is “poor fit”. The “N Type IC50 Data Qpatch Pulse = 15” value on human N-type Ca channel [3] is on record as “poor fit”. Regarding `COc1nccnc1-c1nc(C2CC(C)(C)OC(C)(C)C2)cn1-c1ccc(C#N)c(F)c1` [Cpd 88, 2-fluoro-4-(2-(3-methoxypyrazin-2-yl)-4-(2,2,6,6-tetramethyltetrahydro-2H-pyran-4-yl)-1H-imidazol-1-yl)benzonitrile], at human N-type Ca channel [3], the “N Type IC50 Data Qpatch Pulse = 15” value is “poor fit”. Take `CCOc1ncccc1-c1nc(C2CC(C)(C)OC(C)(C)C2)cn1-c1ccc(C#N)c(F)c1` [Cpd 89, 4-(2-(2-ethoxypyridin-3-yl)-4-(2,2,6,6-tetramethyltetrahydro-2H-pyran-4-yl)-1H-imidazol-1-yl)-2-fluorobenzonitrile]: the “N Type IC50 Data Qpatch Pulse = 15” value at human N-type Ca channel [3] is on record as “poor fit”. In the case of `COc1ccccc1-c1nc(C2CC(C)(C)OC(C)(C)C2)c(C)n1-c1ccc(Cl)cc1` [Cpd 90, 1-(4-chlorophenyl)-2-(2-methoxyphenyl)-5-methyl-4-(2,2,6,6-tetramethyltetrahydro-2H-pyran-4-yl)-1H-imidazole], the “N Type IC50 Data Qpatch Pulse = 1” value at human N-type Ca channel [3] (Pulse = 1) was “poor fit”. The “N Type IC50 Data Qpatch Pulse = 15” value on human N-type Ca channel [3] is reported as “poor fit”. For the molecule `COc1ccccc1-c1nc(C2CC(C)(C)OC(C)(C)C2)cn1S(=O)(=O)C1CC1` [Cpd 95, 1-(Cyclopropylsulfonyl)-2-(2-methoxyphenyl)-4-(2,2,6,6-tetramethyltetrahydro-2H-pyran-4-yl)-1H-imidazole], on human N-type Ca channel [2], the IC50 is not below 10000 nM.

In the case of `COc1ccccc1-c1nc(C2CC(C)(C)OC(C)(C)C2)cn1S(=O)(=O)CC(C)C` [Cpd 96, 2-(2-Methoxyphenyl)-1-[(2-methylpropyl)sulfonyl]-4-(2,2,6,6-tetramethyltetrahydro-2H-pyran-4-yl)-1H-imidazole], the IC50 on human N-type Ca channel [3] is not below 10000 nM. Turning to `COc1ccccc1-c1nc(C2CC(C)(C)OC(C)(C)C2)cn1Cc1cncnc1` [Cpd 100, 5-{[2-(2-Methoxyphenyl)-4-(2,2,6,6-tetramethyltetrahydro-2H-pyran-4-yl)-1H-imidazol-1-yl]methyl}pyrimidine], the IC50 at human N-type Ca channel [2], at human N-type Ca channel [3] (setting [5]) and on human N-type Ca channel [3] (setting [6]) was not below 10000 nM each time. Consider `COc1ccccc1-c1nc(C2(O)CC(C)(C)OC(C)(C)C2)cn1-c1ccc(F)c(Br)c1` [Cpd 106, 4-[1-(3-Bromo-4-fluorophenyl)-2-(2-methoxyphenyl)-1H-imidazol-4-yl]-2,2,6,6-tetramethyltetrahydro-2H-pyran-4-ol], for which the IC50 at human N-type Ca channel [2] was 148 nM; at human N-type Ca channel [3] (setting [6]), 5030 nM. Also, at human N-type Ca channel [3] (setting [4]), the inhibition at 10 µM was determined as 71%. On to `COc1ncccc1-c1nc(C2(O)CC(C)(C)OC(C)(C)C2)cn1-c1ccc(F)c(C#N)c1` [Cpd 116, 2-Fluoro-5-[4-(4-hydroxy-2,2,6,6-tetramethyltetrahydro-2H-pyran-4-yl)-2-(2-methoxypyridin-3-yl)-1H-imidazol-1-yl]benzonitrile], for which the 50% inhibitory concentration (IC50) on human N-type Ca channel [2] is 1370 nM; against human N-type Ca channel [3] (N Type IC50 Data Qpatch Pulse = 1, Pulse = 1, concentration range 0.01-1 μM) it was more than 1000 nM; against human N-type Ca channel [3] (N Type IC50 Data Qpatch Pulse = 15, Pulse = 15, concentration range 0.01-1 μM), more than 1000 nM. For `COc1ccccc1-c1nc(C2(O)CC(C)(C)OC(C)(C)C2)cn1-c1ccc(C#N)c(F)c1` [Cpd 118, 2-Fluoro-4-[4-(4-hydroxy-2,2,6,6-tetramethyltetrahydro-2H-pyran-4-yl)-2-(2-methoxyphenyl)-1H-imidazol-1-yl]benzonitrile], the IC50 at human N-type Ca channel [3] (setting [6]) is not below 10000 nM. For `COc1ccccc1-c1nc(C2CC(C)(C)OC(C)(C)C2)cn1-c1ccc(C#N)c(C(F)(F)F)c1` [Cpd 121, 4-[2-(2-Methoxyphenyl)-4-(2,2,6,6-tetramethyltetrahydro-2H-pyran-4-yl)-1H-imidazol-1-yl]-2-(trifluoromethyl)benzonitrile], the concentration for half-maximal inhibition (IC50) at human N-type Ca channel [2] turned out to be 233 nM; on human N-type Ca channel [3] (setting [5]), 6600 nM; against human N-type Ca channel [3] (setting [6]), 3300 nM. Take `COc1ccccc1-c1nc(C2=CC(C)(C)OC(C)(C)C2)cn1-c1ccc(C#N)c(F)c1` [Cpd 126, 2-Fluoro-4-[2-(2-methoxyphenyl)-4-(2,2,6,6-tetramethyl-3,6-dihydro-2H-pyran-4-yl)-1H-imidazol-1-yl]benzonitrile]: the IC50 at human N-type Ca channel [2] stood at 234 nM; on human N-type Ca channel [3] (setting [6]), 1900 nM.
